According to ChEMBL document CHEMBL1201862, “PubChem BioAssay data set” (2004):
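Interpolation was linear, between the two tested concentrations surrounding the appropriate level; five concentrations were tested over 48 hours in 96-well plates. Abbreviation: GI50, concentration required for 50% inhibition of growth.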 Calls of active or inactive are those of the source. Cut-off read from the data, not from the text of the source: active = GI50 up to about 1.1 µM and inactive = higher.

Tests used:
Assay in all cases: growth of human tumour cells (NCI), 48 h
COLO 205 = test system: COLO 205
MOLT-4 = test system: MOLT-4
NCI-H226 = test system: NCI-H226
A498 = test system: A498
NCI-H522 = test system: NCI-H522
SK-MEL-28 = test system: SK-MEL-28
OVCAR-8 = test system: OVCAR-8
A549 = test system: A549
CAKI-1 = test system: CAKI-1
HOP-62 = test system: HOP-62
NCI-H460 = test system: NCI-H460
SK-MEL-5 = test system: SK-MEL-5
OVCAR-3 = test system: OVCAR-3
SN12C = test system: SN12C
HL-60 = test system: HL-60
TK-10 = test system: TK-10

## CN/N=C(/CC(=O)c1sc(-n2nc(-c3ccccc3)cc2-c2ccccc2)nc1C)C(=O)Nc1ccc(Cl)c(Cl)c1
COLO 205
  GI50: 28.9 µM (inactive)
MOLT-4
  GI50: 16.7 µM (inactive)
NCI-H226
  GI50: 17.2 µM (inactive)
A498
  GI50: 16.1 µM (inactive)
NCI-H522
  GI50: 28.1 µM (inactive)
SK-MEL-28
  GI50: 55.1 µM (inactive)
OVCAR-8
  GI50: 51.1 µM (inactive)
A549
  GI50: 37.9 µM (inactive)
CAKI-1
  GI50: 14.7 µM (inactive)
HOP-62
  GI50: 19.4 µM (inactive)
NCI-H460
  GI50: 57.3 µM (inactive)
SK-MEL-5
  GI50: 18 µM (inactive)
OVCAR-3
  GI50: 38.7 µM (inactive)
SN12C
  GI50: 66.5 µM (inactive)

## O=C(CN1CCCCC1)N1CCc2c([nH]c3ccccc23)C1c1cccnc1 (centres undefined)
HL-60
  GI50: > 100 µM (inactive)
MOLT-4
  GI50: > 100 µM (inactive)
A498
  GI50: > 100 µM (inactive)
NCI-H522
  GI50: > 100 µM (inactive)
TK-10
  GI50: > 100 µM (inactive)
SK-MEL-28
  GI50: > 100 µM (inactive)
OVCAR-8
  GI50: > 100 µM (inactive)
A549
  GI50: > 100 µM (inactive)
CAKI-1
  GI50: > 100 µM (inactive)
HOP-62
  GI50: > 100 µM (inactive)
NCI-H460
  GI50: > 100 µM (inactive)
SK-MEL-5
  GI50: > 100 µM (inactive)
OVCAR-3
  GI50: > 100 µM (inactive)
SN12C
  GI50: > 100 µM (inactive)

## Cn1cc(C2(C)CC(C)(C)c3c2n(C)c2ccccc32)c2ccccc21 (centres undefined)
COLO 205
  GI50: > 100 µM (inactive)
MOLT-4
  GI50: 42.4 µM (inactive)
NCI-H226
  GI50: 90.2 µM (inactive)
A498
  GI50: > 100 µM (inactive)
NCI-H522
  GI50: 40.3 µM (inactive)
TK-10
  GI50: > 100 µM (inactive)
SK-MEL-28
  GI50: > 100 µM (inactive)
OVCAR-8
  GI50: > 100 µM (inactive)
A549
  GI50: > 100 µM (inactive)
CAKI-1
  GI50: > 100 µM (inactive)
HOP-62
  GI50: > 100 µM (inactive)
NCI-H460
  GI50: > 100 µM (inactive)
SK-MEL-5
  GI50: 69.3 µM (inactive)
OVCAR-3
  GI50: 64 µM (inactive)
SN12C
  GI50: > 100 µM (inactive)

## CC1(O)CC2C(CC1SCCO)C2(C)C (centres undefined)
HL-60
  GI50: > 100 µM (inactive)
COLO 205
  GI50: > 100 µM (inactive)
MOLT-4
  GI50: > 100 µM (inactive)
A498
  GI50: > 100 µM (inactive)
TK-10
  GI50: > 100 µM (inactive)
SK-MEL-28
  GI50: > 100 µM (inactive)
OVCAR-8
  GI50: > 100 µM (inactive)
A549
  GI50: > 100 µM (inactive)
NCI-H460
  GI50: > 100 µM (inactive)
SK-MEL-5
  GI50: > 100 µM (inactive)
OVCAR-3
  GI50: > 100 µM (inactive)
SN12C
  GI50: > 100 µM (inactive)

## COc1ccccc1NC(=O)C1=C(C)NC(C)=C(C(=O)Nc2ccccc2OC)C1c1ccccc1F
HL-60
  GI50: 46.2 µM (inactive)
COLO 205
  GI50: > 100 µM (inactive)
MOLT-4
  GI50: 49.2 µM (inactive)
NCI-H226
  GI50: > 100 µM (inactive)
A498
  GI50: > 100 µM (inactive)
TK-10
  GI50: > 100 µM (inactive)
SK-MEL-28
  GI50: > 100 µM (inactive)
OVCAR-8
  GI50: > 100 µM (inactive)
A549
  GI50: 57.4 µM (inactive)
CAKI-1
  GI50: > 100 µM (inactive)
HOP-62
  GI50: > 100 µM (inactive)
NCI-H460
  GI50: 67.9 µM (inactive)
SK-MEL-5
  GI50: 41.6 µM (inactive)
OVCAR-3
  GI50: > 100 µM (inactive)
SN12C
  GI50: > 100 µM (inactive)

## O=C1CCCCC/C=C2/CC[C@H](Sc3ccccc3)[C@@H]12
HL-60
  GI50: 52.1 µM (inactive)
COLO 205
  GI50: > 100 µM (inactive)
MOLT-4
  GI50: 31.4 µM (inactive)
NCI-H226
  GI50: > 100 µM (inactive)
TK-10
  GI50: 49.9 µM (inactive)
SK-MEL-28
  GI50: > 100 µM (inactive)
OVCAR-8
  GI50: 74.1 µM (inactive)
A549
  GI50: 34.3 µM (inactive)
HOP-62
  GI50: 37.3 µM (inactive)
NCI-H460
  GI50: 94.4 µM (inactive)
SK-MEL-5
  GI50: > 100 µM (inactive)
SN12C
  GI50: > 100 µM (inactive)

## Cn1nc(-c2ccccc2)c(C(=O)/C=C/c2ccc(Cl)cc2)c(N2CCCCC2)c1=O
HL-60
  GI50: 1.82 µM (inactive)
COLO 205
  GI50: 2.23 µM (inactive)
MOLT-4
  GI50: 1.53 µM (inactive)
NCI-H522
  GI50: 1.85 µM (inactive)
TK-10
  GI50: 3.72 µM (inactive)
SK-MEL-28
  GI50: 3.78 µM (inactive)
OVCAR-8
  GI50: 3.8 µM (inactive)
A549
  GI50: 2.92 µM (inactive)
CAKI-1
  GI50: 0.826 µM (active)
HOP-62
  GI50: 2.37 µM (inactive)
NCI-H460
  GI50: 2.52 µM (inactive)
SK-MEL-5
  GI50: 1.95 µM (inactive)
SN12C
  GI50: 3.53 µM (inactive)

## [O-][S+]1c2ccc(Cl)cc2CC(SSC2Cc3cc(Cl)ccc3[S+]([O-])c3ccccc32)c2ccccc21 (centres undefined)
HL-60
  GI50: > 100 µM (inactive)
COLO 205
  GI50: > 100 µM (inactive)
MOLT-4
  GI50: > 100 µM (inactive)
NCI-H226
  GI50: > 100 µM (inactive)
NCI-H522
  GI50: > 100 µM (inactive)
TK-10
  GI50: > 100 µM (inactive)
SK-MEL-28
  GI50: > 100 µM (inactive)
OVCAR-8
  GI50: > 100 µM (inactive)
A549
  GI50: > 100 µM (inactive)
CAKI-1
  GI50: > 100 µM (inactive)
HOP-62
  GI50: > 100 µM (inactive)
NCI-H460
  GI50: > 100 µM (inactive)
SK-MEL-5
  GI50: > 100 µM (inactive)
OVCAR-3
  GI50: > 100 µM (inactive)
SN12C
  GI50: > 100 µM (inactive)

## COC(=O)C1=C(C)N(NC(N)=O)C(C)(O)C12CCOC2=O (centres undefined)
HL-60
  GI50: > 100 µM (inactive)
COLO 205
  GI50: > 100 µM (inactive)
MOLT-4
  GI50: > 100 µM (inactive)
NCI-H226
  GI50: > 100 µM (inactive)
A498
  GI50: > 100 µM (inactive)
NCI-H522
  GI50: > 100 µM (inactive)
TK-10
  GI50: > 100 µM (inactive)
SK-MEL-28
  GI50: > 100 µM (inactive)
OVCAR-8
  GI50: > 100 µM (inactive)
A549
  GI50: > 100 µM (inactive)
CAKI-1
  GI50: > 100 µM (inactive)
HOP-62
  GI50: > 100 µM (inactive)
NCI-H460
  GI50: > 100 µM (inactive)
OVCAR-3
  GI50: > 100 µM (inactive)
SN12C
  GI50: > 100 µM (inactive)

## CC12CCC(C)(c3cc(O)c(O)cc31)c1cc(O)c(O)cc12
HL-60
  GI50: 3.38 µM (inactive)
COLO 205
  GI50: 16.5 µM (inactive)
MOLT-4
  GI50: 15.1 µM (inactive)
NCI-H522
  GI50: 2.29 µM (inactive)
TK-10
  GI50: 19.8 µM (inactive)
SK-MEL-28
  GI50: 16.4 µM (inactive)
OVCAR-8
  GI50: 19.7 µM (inactive)
A549
  GI50: 29.6 µM (inactive)
CAKI-1
  GI50: 11.2 µM (inactive)
HOP-62
  GI50: 26.7 µM (inactive)
NCI-H460
  GI50: 18 µM (inactive)
SK-MEL-5
  GI50: 17.7 µM (inactive)
OVCAR-3
  GI50: 17.8 µM (inactive)
SN12C
  GI50: 21.8 µM (inactive)
